The values that follow come from patent US20260207606A1, “DOSING SCHEDULE OF A SOLID DISPERSION OF A HER2 INHIBITOR” (Boehringer Ingelheim International GmbH, priority 2022, published 2026).

Data set [1] concerns patients with HER2 mutation positive advanced/metastatic NSCLC. The data set is described as follows: Phase Ib dose expansion, Cohort 1: safety (treatment related adverse events). Format: in vivo, human. Particulars: 120/240 mg QD, 42 patients. An excerpt: (§1) This Example focuses on the dose expansion part (Phase Ib) of the Phase I study described in Example 8. Approximately 275 patients diagnosed with advanced or metastatic refractory NSCLC harbouring mutations in the HER2 gene are enrolled. Patients are divided into 5 cohorts according to the main inclusion criteria listed below.
(§2) The trial objectives of Phase Ib include: • For cohort 1, cohort 2, and cohort 5, assess objective tumour response rate by central independent review; • For cohort 3, assess objective tumour response rate by investigator assessment; • For all cohorts, further investigate the safety, tolerability, and PK of the investigated doses of zongertinib in patients with HER2 mutation positive advanced/metastatic NSCLC; • For all cohorts, continue evaluating safety, and patient-reported outcomes.
The main inclusion criteria include: • Patients with a confirmed diagnosis of an advanced, unresectable and/or metastatic non-haematologic malignancy with at least one measurable lesion; • Availability and willingness to provide a sample of archival formalin-fixed paraffin embedded (FFPE) tumour tissue material; • Patients must be willing to comply with the blood sampling and tumour biopsy requirements for PK, PD and biomarker analyses; • For cohort 1: Patients with documented HER2 Tyrosine Kinase Domain (TKD) mutation positive non-squamous NSCLC who had received, in the advanced/metastatic setting, at least one line of systemic therapy that includes a platinum-based combination chemotherapy; • For cohort 2: Patients with documented HER2 Tyrosine Kinase Domain (TKD) mutation positive non-squamous NSCLC who have not received any previous lines of therapy (neo or adjuvant chemo, chemoradio or radiotherapy is permitted if at least 6 months have elapsed prior to disease progression); • For cohort 3: Patients with documented HER2 Non-TKD mutation positive NSCLC, and HER2 TKD mutation positive squamous NSCLC, who had received in the advanced/metastatic setting at least one line of systemic therapy that includes a platinum-based combination chemotherapy; • Patients in these cohorts 1 to 4 must have not received prior therapy with HER2 directed antibody-drug conjugates (ADC); • For cohort 5: Patients with documented HER2 TKD mutation positive non-squamous NSCLC who had received prior therapy with HER2 directed ADC in the advanced/metastatic setting and developed disease progression during or after completing this therapy.
The treatment consists of reiterated cycles of 3 weeks as long as the patient has clinical benefit or until undue drug toxicity or withdrawal of consent, whichever occurs first.

Data set [2] can be described thus: Phase Ia dose escalation trial: pharmacokinetics, plasma exposure. The data set is classed as in vivo. Particulars: increasing doses, BID and QD. The procedure: Pharmacokinetic (PK) profiles of compound (1) are investigated after the first and after repeated doses. Standard PK parameters are calculated, if data allows and if scientifically reasonable. […] Statistical analyses are performed.
If deemed necessary, further PK parameters might be used for these assessments.
Preliminary PK analyses can be performed as necessary for DEC decisions. The final preliminary analysis are performed at the end of the dose escalation part prior to proceeding to the dose expansion part. In contrast to the final PK analysis, the preliminary analyses are based on planned sampling times rather than on actual times; no supplementary patient information, e.g. on AEs or concomitant medication, is used in these analyses, and the outputs are not validated. Minor discrepancies between preliminary and final results may therefore occur.

The subject of data set [3] is HER2 Tyrosine Kinase Domain (TKD) mutation positive non-squamous NSCLC. The data set is described as follows: Phase Ib dose expansion, Cohort 1: objective response and disease control (RECIST 1.1). The data set is classed as in vivo, human. Particulars: 120/240 mg QD.
Source text: as §1, §2
The primary endpoints of Phase Ib include: • For cohort 1, 2, and 5: objective response (OR) assessed by independent central review, according to Response Evaluation Criteria In Solid Tumors (RECIST) version 1.1; • For cohort 3: objective response (OR) by investigator.
For Cohort 1, 2, and 5: • Duration of objective response (DoR) according to RECIST 1.1 by central independent review; • Disease control (DC) according to RECIST 1.1 by central independent review; • Progression-free survival (PFS) according to RECIST 1.1 by central independent review; […]

Data set [4] has as its system PC-9 YVMA xenograft. The data set is described as follows: Preclinical PK/TGI model for human dose prediction. Set-up: species or system mice. Particulars: PK/TGI model with predicted human PK parameters. The procedure: This preclinical mathematical model was built with input data from internal in vitro and in vivo data from efficacy experiments in PC-9 YVMA xenograft. Plasma exposure and tumor growth inhibition data from mice were used to train the model. The predicted human PK parameters were used to predict the human plasma profile in the preclinical PK/TGI model. In this setting the PK/TGI model was used to identify the required dose in human necessary to achieve a TGI >100%. This was predicted at 40 mg BID.

Setting [5] is: 23 evaluable patients (received 2-5 cycles at cut-off).

For the compound `C=CC(=O)NC1CCN(c2ncc3ncnc(Nc4ccc(Oc5ccc6c(c5)ncn6C)c(C)c4)c3n2)CC1` [compound (1), N-{1-[8-({3-methyl-4-[(1-methyl-1H-1,3-benzodiazol-5-yl)oxy]phenyl}amino)-[1,3]diazino[5,4-d]pyrimidin-2-yl]piperidin-4-yl}prop-2-enamide], in data set [1], the “AEs leading to treatment discontinuation” value is “No AEs led to treatment discontinuation”; the “TRAE diarrhea, all grades” value is 29%; the “TRAE diarrhea, grade ≥3” value amounted to 0%; the “TRAE dysgeusia, all grades” value came out at 10%. Also, in data set [1], the “TRAE dysgeusia, grade ≥3” value turned out to be 0%; the “TRAE increased aspartate aminotransferase, all grades” value is on record as 10%; the “TRAE increased aspartate aminotransferase, grade ≥3” value is listed as 2%; the “TRAE low appetite, all grades” value is given as 10%. Besides, in data set [1], the “TRAE low appetite, grade ≥3” value came to 0%; the “TRAE rash, all grades” value was 21%; the “TRAE rash, grade ≥3” value came to 0%. In data set [1] (Jul. 31, 2023), the “Treatment related adverse events (TRAEs), all grades” value turned out to be 67% and the “Treatment related adverse events (TRAEs), grade ≥3” value is listed as 10%. The “dose proportionality of plasma exposure” value in data set [2] was “no apparent deviation from dose proportional pharmacokinetics”. Moreover, in data set [3] (setting [5]), the DCR turned out to be 91% and the ORR was found to be 74%. For the same compound, the “responding patients on treatment at data cut-off” value in data set [3] is on record as “All responding patients remained on treatment”. Besides, the “predicted dose in human necessary to achieve a TGI >100%” value in data set [4] is 40 mg BID.
